Measured values from US10166237B2, “Compounds and methods for inducing chondrogenesis” (The Scripps Research Institute, priority 2011, dated 2019).

Key:
[1] = test system: human mesenchymal stem cells (hMSCs); assay: chondrogenic nodule formation by hMSCs (high throughput screen); format: cell-based; settings: Homo sapiens, Mesenchymal stem cells; first value of the cell (before the slash); read-out: CHONDROGENIC μM EC50
Protocol: The primary screening assay was based upon the development of chondrogenic nodules. Chondrocytes can grow in monolayer in vitro, but to more closely mimic their native environment in the joint, the cells are routinely cultured in non-adherent conditions such as in pellet cultures or alginate bead suspensions.
In the actual screen of a library of 22,000 structurally diverse heterocycles, 10^4 primary hMSCs were plated in 384 well plates in serum free DMEM. The cells were treated with 5 μM of each compound and incubated for 4 days. […] To facilitate high throughput imaged-based detection, the chondrogenic nodules were stained with […]. The Nile Red stained nodules were quantified on an Acumen eX3 (high content imaging device) by excitation with a 488 laser for rapid detection of the nodules.
Primary hMSCs grown in a 96 well Greiner plates (50,000/well) were incubated for 4 days in the presence of the 5 uM of each DMSO or 100 nM of PRO1. On day 4, the cells were fixed with 4% formalin for 10 minutes, washed and stained with 1 μg/ml of Rhodamine B for 2 hours at room temperature.

[2] = test system: primary bovine chondrocytes; assay: inhibition of cytokine-induced nitric oxide release (Greiss reaction); format: cell-based; settings: Bos taurus, Chondrocyte; second value of the cell (after the slash); TNFα and oncostatin M, 48 hours; read-out: NO INHIBTION μM IC50
Description: In the screen, hMSCs were used as a surrogate to future targeting of the resident MSCs with the cartilage joint. It was in that setting upon which we identified PRO1. In a joint injury, the primary cell type a therapeutic would have contact with is the chondrocyte. Although cartilage or chondrocyte-targeted screening has not lead to the development of a successful drug modifying osteoarthritis drug (DMOAD) to date, it is believed that a stem cell-based therapeutic would protect and even repair the existing chondrocytes. Therefore, protection of the articular chondrocytes and cartilage from a mature bovine knee was assessed. PRO1 and its analogues were incubated with primary bovine chondrocytes or cartilage explants cultures grown in the presence of TNFα and oncostatin M to mimic the cytokine-induced damage that can occur during OA. In the presence of the cytokine cocktail, in vitro cultured primary chondrocytes released 4-5 fold more nitric oxide (NO) than the untreated chondrocytes (50 μM vs 10 μM) as measured by the Greiss reaction. In cells treated with the cytokine cocktail and PRO1, the small molecule could effectively block the release of NO by up to 70% FIG. 2C). Similarly, in ex vivo treated cartilage explants, cytokine-induced release of glycosaminoglycans (GAG) was reduced by up to 60% by PRO1 (FIG. 2D). Finally, hMSC were grown in pellet culture for 21 days.
(§1) Primary hMSCs were plated (10,000/well) in 384-well plates and cultured for 18 days. The cells were fixed with 4% formalin, permeabilized with triton (0.5%), digested with 0.5 mg/ml collagenase II to unwind the collagen fibrils, and then immunostained with an antibody recognizing type II collagen. DAPI (2 μg/ml) was added to visualize the nuclei. The chondrogenic nodules stained positive for type II collagen but lacked expression of type X collagen and osteocalcin, markers for chondrocyte hypertrophy and osteoblasts, respectively (not shown). 10,000 hMSCs (passages 3-5) were plated in Greiner 384-well low-bottom plates on day 1. The cells were allowed to adhere and stimulated for 48 hrs (days 2-3) with the indicated stimuli in MSC growth media (Millipore). The media was then removed and replaced with serum-free DMEM for an additional 16 days. This media was replenished on days 10 and 15 of the assay. Primary bovine chondrocytes were isolated from the articular surfaces from mature knees. After one week of culture, 8,500 cells were trypsinized and plated in Greiner 384-well white clear-bottom plates in growth media. […] 20 μl of the supernatant was mixed with 20 μl of the Greiss reagent and quantitated at 540 nm as described by the Promega kit instructions. Bovine cartilage explants (cut in circular explants in a 96 well plate) were cultured in the presence of 20 ng/ml TNFα and 10 ng/ml oncostatin M to induce GAG release for 72 hours (FIG. 2D). PRO1 was added at the indicated concentrations during the entire 72 hrs. […] Parafin sections were hydrated, incubated in low pH Antigen unmasking solution (Vector) at 90 C for 10 minutes, permeabilized with 0.1% collagenase II (only for the sections stained with type II collagen) for 10 minutes, blocked with CAS block for 10 minutes and then incubated with the primary antibody (type II collagen, aggrecan or Timp1) antibody (Abcam) overnight at 4 C. The antigens were visualized through standard ABC detection methods and developed with DAB. Representative of 3 sections stained/treatment group (independent experiments).

[3] = test system: hMSCs; assay: type II collagen expression in hMSC cultures (18 day assay); format: cell-based, human; settings: for EC50: Homo sapiens
Protocol: The chondrogenic differentiation event was initiated quickly even though a fully differentiated chondrocyte phenotype cannot be assessed prior to 14 days in culture. In an 18 day assay, compound treatment was only required for the first 48 hrs and followed by removal and replacement of the media (in the absence of stimuli, FIG. 2B). The promotion of chondrogenic differentiation was not altered or enhanced upon longer treatment with the stimuli (data not shown).
as §1

Row | SMILES | EC50 [1] [µM] | IC50 [2] [µM] | EC50 [3] [µM] | induction of chondrogenic differentiation of hMSCs ([3]; compared with known inducers TGFβ3, BMP7 or BMP2, FIG. 2B)
1 | O=C(O)c1ccccc1C(=O)Nc1ccc(I)cc1 [Compound L11a, 2-((4-iodophenyl)carbamoyl)benzoic acid] | > 10 | > 10 | > 10 | 
2 | O=C(O)c1ccccc1C(=O)Nc1ncc(-c2ccc(F)c(F)c2)s1 [LK35] | > 10 | 0.03 | > 10 | 
3 | O=C(O)c1ccccc1C(=O)Nc1ccccc1 [LK49] | 5 | > 10 |  | 
4 | Cc1ccc2nc(-c3ccc(NC(=O)c4ccccc4C(=O)O)cc3)sc2c1 |  | 0.987 |  | 
5 | CNC(=O)c1ccccc1C(=O)O [AKT-NHMe] | 2.7 | 0.0046 | 0.24 | 
6 | O=C(O)c1ccccc1C(=O)Nc1ccc(CCO)cc1 [Compound L11c, 2-((4-(2-hydroxyethyl)phenyl)carbamoyl)benzoic acid] | 0.125 | > 10 | > 10 | 
7 | Cc1cncc(NC(=O)c2ccccc2C(=O)O)c1 [Compound L5] | 0.6 | 2.4 | > 10 | 
8 | Cc1ccc(NC(=O)c2ccccc2C(=O)O)cn1 [Compound L6] | > 10 | > 10 | > 10 | 
9 | O=C(O)c1ccc(C(=O)Nc2ccc(O)cc2)c(C(=O)O)c1 |  | > 10 |  | 
10 | O=C(O)c1ccccc1C(=O)Nc1ccc(Oc2ccccc2)cc1 |  | > 10 |  | 
11 | C=COc1ccc(NC(=O)c2ccccc2C(=O)O)cc1 |  | > 10 |  | 
12 | Cc1ccc(C(=O)Nc2ccc(-c3ccccc3)cc2)c(C(=O)O)c1 [AKT-Me] | > 10 | > 10 | > 10 | 
13 | C#CCOC(=O)c1ccccc1C(=O)Nc1ccc(Br)cc1 |  | > 10 |  | 
14 | CC(=O)c1ccc(NC(=O)c2ccccc2C(=O)O)cc1 [drawing 168] |  | > 10 |  | 
15 | O=C(O)c1ccc(CNC(=O)c2ccccc2C(=O)O)cc1 [LK64] | 0.398 | 0.981 |  | 
16 | CCNC(=O)c1ccccc1C(=O)O [AKT-NHEt] | 2.01 | > 10 | > 10 | 
17 | CCc1ccc(NC(=O)c2ccc(C(=O)O)cc2C(=O)O)cc1 |  | 0.925 |  | 
18 | Cc1ccc(NC(=O)c2ccccc2C(=O)O)c(C(=O)O)c1 [LK60, 2-(2-carboxybenzamido)-5-methylbenzoic acid] | 0.014 | 1.25 |  | 
19 | N#Cc1ccc(NC(=O)c2ccccc2C(=O)O)cc1 [AKT-CN] | 0.137 | 0.03 | 0.108 | more potent and efficient
20 | O=C(Nc1ccc(Cc2ccccc2)cc1)c1cc(Cl)cc(Cl)c1C(=O)O |  | > 10 |  | 

Row | SMILES | EC50 [1] [µM] | IC50 [2] [µM] | EC50 [3] [µM] | induction of chondrogenic differentiation of hMSCs ([3]; compared with known inducers TGFβ3, BMP7 or BMP2, FIG. 2B)
21 | O=C(O)c1ccccc1C(=O)Nc1ccc(Oc2ccc3ccccc3c2)cc1 |  | > 10 |  | 
22 | CC1COCCN1C(=O)c1ccc(NC(=O)c2ccccc2C(=O)O)cc1 (stereo not drawn) |  | 2.64 |  | 
23 | O=C(O)c1ccccc1C(=O)Nc1ccc(F)cc1 | > 10 | 0.0125 |  | 
24 | O=C(O)c1ccccc1C(=O)Nc1ccc(OC(F)F)cc1 |  | > 10 |  | 
25 | O=C(O)c1ccc(NC(=O)c2ccccc2C(=O)O)cc1 [LK53] | 0.005 | 0.146 |  | 
26 | O=C(O)c1ccc(NC(=O)c2ccccc2C(=O)O)cc1Cl [LK63, 4-(2-carboxybenzamido)-2-chlorobenzoic acid] | 0.126 | 0.0298 |  | 
27 | O=C(O)c1ccccc1C(=O)Nc1ccc(S(=O)(=O)N2CCCCC2)cc1 |  | 2.7 |  | 
28 | CCCOC(=O)c1ccc(NC(=O)c2ccccc2C(=O)O)cc1 | > 10 | 0.624 |  | 
29 | [N-]=[N+]=Nc1ccc(C(=O)NCCCNC(=O)c2ccccc2C(=O)NNC(=O)CCOCCC2SCC3NC(=O)NC32)c(O)c1 (stereo not drawn) [AKT-azide] |  | 0.12 | 0.654 | 
30 | CCCCCOc1ccc(NC(=O)c2ccccc2C(=O)O)cc1 |  | > 10 |  | 
31 | COc1ccc(NC(=O)c2ccccc2C(=O)O)cc1 [Compound L2, 2-((4-methoxyphenyl)carbamoyl)benzoic acid] | > 10 |  | > 10 | 
32 | CC(=O)Nc1ccc(NC(=O)c2ccccc2C(=O)O)cc1 |  | > 10 |  | 
33 | COC(=O)c1ccccc1C(=O)Nc1ccc(-c2ccccc2)cc1 [LK55b, Methyl 2-([1,1′-biphenyl]-4-ylcarbamoyl)benzoate] | 0.124 | 0.234 |  | 
34 | COc1ccc(NC(=O)c2cc(Cl)c(Cl)cc2C(=O)O)cc1 |  | > 10 |  | 
35 | CC(C)(C)Oc1ccc(NC(=O)c2ccccc2C(=O)O)cc1 |  | > 10 |  | 
36 | O=C(c1ccccc1)c1ccc(NC(=O)c2ccccc2C(=O)O)cc1 | > 10 | 2.5 |  | 
37 | O=C(O)c1ccccc1C(=O)Nc1ccc2c(c1)OCO2 [LK62, 2-(benzo[1,3]dioxol-5-ylcarbamoyl)benzoic acid] | 3.36 | 0.145 |  | 
38 | CCN(CC)c1ccc(NC(=O)c2ccccc2C(=O)O)cc1 |  | 2.98 |  | 
39 | O=C(Nc1ccccc1)c1ccccc1C(=O)OCc1ccc([N+](=O)[O-])cc1 |  | > 10 |  | 
40 | O=C(O)c1ccc(NC(=O)c2ccccc2C(=O)O)c(C(=O)O)c1 |  | > 10 |  | 

Row | SMILES | EC50 [1] [µM] | IC50 [2] [µM] | EC50 [3] [µM] | induction of chondrogenic differentiation of hMSCs ([3]; compared with known inducers TGFβ3, BMP7 or BMP2, FIG. 2B)
41 | O=C(O)c1ccccc1C(=O)Nc1ccc([N+](=O)[O-])cn1 [LK59, 2-((5-nitropyridin-2-yl)carbamoyl)benzoic acid] | 0.371 | 0.491 |  | 
42 | CC(C)(C)c1ccc(NC(=O)c2cc(Cl)c(Cl)cc2C(=O)O)cc1 |  | > 10 |  | 
43 | CN1C(=O)c2ccc(NC(=O)c3ccccc3C(=O)O)cc2C1=O [LK61] | 0.052 | 1.69 |  | 
44 | C=C(C)CS(=O)(=O)c1ccc(NC(=O)c2ccccc2C(=O)O)cc1 |  | 0.925 |  | 
45 | C=CCOC(=O)c1ccccc1C(=O)Nc1ccc(I)cc1 |  | > 10 |  | 
46 | COC(=O)c1cc(C(=O)O)ccc1C(=O)Nc1ccc(C(=O)O)cc1 |  | > 10 |  | 
47 | O=C(O)c1ccccc1C(=O)Nc1ccc(C(=O)N2CCOCC2)cc1 |  | > 10 |  | 
48 | O=C(O)c1ccc(C(=O)Nc2ccc(Br)cc2)c(C(=O)O)c1 |  | > 10 |  | 
49 | O=C(O)c1ccccc1C(=O)Nc1ccc(S(=O)(=O)NCc2ccccc2)cc1 |  | > 10 |  | 
50 | O=C(O)c1ccccc1C(=O)Nc1ccc([N+](=O)[O-])cc1 |  | > 10 |  | 
51 | Cc1ccc(Oc2ccc(NC(=O)c3ccccc3C(=O)O)cc2)cc1 |  | > 10 |  | 
52 | O=C(O)c1cc([N+](=O)[O-])ccc1C(=O)Nc1ccc(-c2ccccc2)cc1 |  | > 10 |  | 
53 | O=C(O)c1cc(Cl)c(Cl)cc1C(=O)Nc1ccc(Cl)cc1 |  | > 10 |  | 
54 | O=C(O)c1ccc(C(=O)Nc2ccc(I)cc2)c(C(=O)O)c1 |  | > 10 |  | 
55 | CCOc1ccc(NC(=O)c2cccc(O)c2C(=O)O)cc1 |  | > 10 |  | 
56 | COC(=O)c1ccccc1C(=O)Nc1ccc(C#N)cc1 |  | > 10 |  | 
57 | COC(=O)c1ccccc1C(=O)Nc1ccccc1 |  | > 10 |  | 
58 | COc1ccc(NC(=O)c2ccccc2C(=O)Oc2ccc(OC)cc2)cc1 |  | > 10 |  | 
59 | C#CCOC(=O)c1ccccc1C(=O)Nc1ccc(Cl)cc1 |  | > 10 |  | 
60 | O=C(O)c1ccccc1C(=O)Nc1ccc(-c2csc(-c3ccccc3)n2)cc1 |  | > 10 |  | 
